Experimental data reported in patent publication US11590116B2 (THERAVANCE BIOPHARMA R&D IP, LLC, priority 2019, dated 2023).

Legend:
[1] = target: T1, recombinant human ALK5 (TGF-βR1) protein (Homo sapiens, UniProt P36897); assay: Biochemical ALK5 (TGF-βR1) assay to measure pKi (LANCE Ultra ULight kinase assay); conditions: apparent pKi from pIC50 by Cheng-Prusoff, read-out: ALK5 pKi (converted)
T1 construct: purchased Life Technologies PR9075A
T1 sequence (P36897 34-503): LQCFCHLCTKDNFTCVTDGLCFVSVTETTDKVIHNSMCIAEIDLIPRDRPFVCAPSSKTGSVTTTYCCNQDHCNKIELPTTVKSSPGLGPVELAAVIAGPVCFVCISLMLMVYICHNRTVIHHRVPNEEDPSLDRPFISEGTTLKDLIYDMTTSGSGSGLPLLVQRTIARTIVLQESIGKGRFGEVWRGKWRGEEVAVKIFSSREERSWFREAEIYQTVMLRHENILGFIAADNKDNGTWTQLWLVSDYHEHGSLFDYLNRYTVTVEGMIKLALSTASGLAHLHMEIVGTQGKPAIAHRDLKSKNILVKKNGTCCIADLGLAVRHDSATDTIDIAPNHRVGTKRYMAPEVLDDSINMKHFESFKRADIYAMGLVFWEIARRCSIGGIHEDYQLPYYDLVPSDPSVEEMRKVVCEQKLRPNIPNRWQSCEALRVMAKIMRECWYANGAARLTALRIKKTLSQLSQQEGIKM
Procedure, shortened: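 After a 60 min room-temperature preincubation of ALK5 with compound, phosphorylation proceeds 60 min at 37 °C on ATP addition (125 μM as 5× stock). Detection: Eu-labelled phospho-Thr1342 Topo IIα antibody in EDTA buffer, pH 7.0; emission 665 nm.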

[2] = test system: TGF-β-stimulated SMAD3 phosphorylation in BEAS-2B cells; assay: Cellular ALK5 potency assay, inhibition of TGF-β stimulated pSMAD3 formation in BEAS-2B cells; format: cell-based; conditions: Homo sapiens; inhibition of TGF-β stimulated pSMAD3 formation, BEAS-2B cells; read-out: BEAS2B pIC50 (converted)
Procedure, shortened: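 Potency is reported as pIC50, derived from concentration-dependent reduction of pSMAD3 AlphaLISA signal against TGF-β-stimulated cells without compound. BEAS-2B cells received compound for 1 h before a 30-min stimulation with 10 ng/mL TGF-β.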

| Structure (SMILES) | Ki [1] [nM] | IC50 [2] [nM] |
| --- | --- | --- |
| CCc1cccc(-c2n[nH]cc2-c2ccc3ncc(N4CCC(NC)CC4)cc3n2)n1 [Compound 377, 1-[6-[3-(6-ethyl-2-pyridyl)-1H-pyrazol-4-yl]-1,5-naphthyridin-3-yl]-N-methyl-piperidin-4-amine] | < 0.0316 | 25.1 to 158 |
| Cc1cccc(-c2n[nH]cc2-c2ccc3ncc(C(=O)NCCN4CCN(C(C)C)CC4)cc3n2)n1 [Compound 378, N-[2-(4-isopropylpiperazin-1-yl)ethyl]-6-[3-(6-methyl-2-pyridyl)-1H-pyrazol-4-yl]-1,5-naphthyridine-3-carboxamide] | 0.0398 to 0.316 | 25.1 to 158 |
| CC(=O)N[C@@H]1CC=C(c2cnc3ccc(-c4nc[nH]c4-c4cccc(C)n4)cc3c2)CC1 [Compound 380, N-[(1S)-4-[6-[5-(6-methyl-2-pyridyl)-1H-imidazol-4-yl]-3-quinolyl]cyclohex-3-en-1-yl]acetamide] | < 0.0316 | < 20 |
| Cc1nc(-c2n[nH]cc2-c2ccc3ncc(NCCN4CCCC4)cc3n2)ccc1F [Compound 381, 6-[3-(5-fluoro-6-methyl-2-pyridyl)-1H-pyrazol-4-yl]-N-(2-pyrrolidin-1-ylethyl)-1,5-naphthyridin-3-amine] | < 0.0316 | 25.1 to 158 |
| Cc1cccc(-c2nnn(Cc3ccccc3)c2-c2ccc3ncc(N4CCNCC4)cc3c2)n1 [Compound 382, 6-[3-benzyl-5-(6-methyl-2-pyridyl)triazol-4-yl]-3-piperazin-1-yl-quinoline] | 0.0398 to 0.316 | 25.1 to 158 |
| FC(F)(F)c1cccc(-c2n[nH]cc2-c2ccc3ncc(N4CCCNCC4)cc3n2)n1 [Compound 383, 7-(1,4-diazepan-1-yl)-2-[3-[6-(trifluoromethyl)-2-pyridyl]-1H-pyrazol-4-yl]-1,5-naphthyridine] | 0.398 to 3.16 | 200 to 1260 |
| CNC(=O)[C@@H]1CN(c2cnc3ccc(-c4nc[nH]c4-c4cccc(C)n4)cc3c2)CCN1 [Compound 384, (2S)-N-methyl-4-[6-[5-(6-methyl-2-pyridyl)-1H-imidazol-4-yl]-3-quinolyl]piperazine-2-carboxamide] | 0.0398 to 0.316 | 200 to 1260 |
| Cc1cccc(-c2n[nH]cc2-c2ccc3ncc(CCC(=O)N4CCOCC4)cc3n2)n1 [Compound 385, 3-[6-[3-(6-methyl-2-pyridyl)-1H-pyrazol-4-yl]-1,5-naphthyridin-3-yl]-1-morpholino-propan-1-one] | 0.398 to 3.16 | 25.1 to 158 |
| Cc1cccc(-c2n[nH]cc2-c2ccc3ncc(-c4cnn(C5CNC5)c4)cc3n2)n1 [Compound 386, 7-[1-(azetidin-3-yl)pyrazol-4-yl]-2-[3-(6-methyl-2-pyridyl)-1H-pyrazol-4-yl]-1,5-naphthyridine] | < 0.0316 | 25.1 to 158 |
| Cc1cccc(-c2[nH]cnc2-c2ccc3ncc(N4CCC5(CCNC5)C4)cc3c2)n1 (centres unmarked) [Compound 387, 3-(2,7-diazaspiro[4.4]nonan-2-yl)-6-[5-(6-methyl-2-pyridyl)-1H-imidazol-4-yl]quinoline] | < 0.0316 | 25.1 to 158 |
| Cc1cccc(-c2[nH]cnc2-c2ccc3ncc(N4CCC(NC(=O)[C@@H]5CCCN5)CC4)cc3c2)n1 [Compound 388, (2S)-N-[1-[6-[5-(6-methyl-2-pyridyl)-1H-imidazol-4-yl]-3-quinolyl]-4-piperidyl]pyrrolidine-2-carboxamide] | 0.0398 to 0.316 | 200 to 1260 |
| Cc1cccc(-c2[nH]ncc2-c2ccc3ncc(C(=O)OCCN4CCN(C(C)C)CC4)cc3n2)n1 [Compound 389, 2-(4-isopropylpiperazin-1-yl)ethyl 6-[5-(6-methyl-2-pyridyl)-1H-pyrazol-4-yl]-1,5-naphthyridine-3-carboxylate] | 0.0398 to 0.316 | 25.1 to 158 |
| CCN1CCN(c2cnc3ccc(-c4c[nH]nc4-c4cccc(C)n4)nc3c2)CC1 [Compound 390, 7-(4-ethylpiperazin-1-yl)-2-[3-(6-methyl-2-pyridyl)-1H-pyrazol-4-yl]-1,5-naphthyridine] | 0.0398 to 0.316 | 25.1 to 158 |
